{
  "source": "patent US20250325531A1",
  "about": "“TREATMENT OF SYSTOLIC DYSFUNCTION” (MyoKardia, Inc., priority 2024, published 2025)",
  "system": "patients with stable HFrEF",
  "assay": "Safety and tolerability (TEAEs, troponin, ECG, Holter) in SAD cohorts, patients with stable HFrEF",
  "format": "in vivo, human",
  "protocol": "Safety and efficacy assessments were conducted by measuring patients' vital signs and laboratory parameters; performing TTE to measure, e.g., systolic ejection time; performing electrocardiograms (e.g., 12-lead ECG), real-time ECG telemetry (e.g., at least 3-lead), and Holter ECG; and measuring levels of troponin (e.g., troponin I and/or troponin T) and 4β-hydroxycholesterol.\nThe following safety laboratory parameters were measured: (1) hematology parameters (CBC, including differential count, and platelet count); (2) serum chemistry parameters (e.g., sodium, potassium, chloride, bicarbonate, calcium, magnesium, urea, creatinine, ALP, ALT, AST, total bilirubin, glucose, and CPK); and (3) urinalysis parameters (e.g., pH, protein, glucose, leukocyte cstcrasc, and blood).\nAbnormal and/or rising troponin values (as per investigator's judgment and taking into account potential baseline troponin elevation frequently observed in heart failure) led to the patient being clinically evaluated for possible myocardial ischemia. […] The entire clinical context (e.g., signs, symptoms, new ECG changes, new troponin, and CK-MB abnormalities) was evaluated and correlated with any other relevant clinical findings, patient's medical history, and laboratory data to determine the clinical significance of the findings. Troponin results performed on Day 2 of Part 1 (SAD) and Day 10 of Part 2 (MAD) at a local lab were reviewed prior to the patient being discharged the next day.\nPrimary endpoints for this study (safety measures) included the following: treatment-emergent AEs and SAEs; ECG recordings, interpretation, and intervals; vital signs; serum Troponin I concentrations; laboratory abnormalities; and physical examination abnormalities.",
  "key": {"[1]": {"conditions": "SAD Cohorts 1 and 2, 175 mg (n = 8)"}, "[2]": {"conditions": "SAD Cohorts 1 and 2, 350 mg (n = 8)"}, "[3]": {"conditions": "SAD Cohorts 1 and 2, 400 mg Split Dose (n = 4)"}, "[4]": {"conditions": "SAD Cohorts 1 and 2, 550 mg Split Dose (n = 2)"}, "[5]": {"conditions": "SAD Cohorts 1 and 2, Total Active (n = 12)"}},
  "data": [
    {"smiles": "Cn1cc(S(=O)(=O)[C@@](C)(F)C2CCN(C(=O)Nc3ccon3)CC2)c(C(F)F)n1", "note": "[Compound I, (R)-4-(1-((3-(difluoromethyl)-1-methyl-1H-pyrazol-4-yl)sulfonyl)-1-fluoroethyl)-N-(isoxazol-3-yl) piperidine-1-carboxamide]", "values": [
      {"measurement": "maximum troponin I level, one subject", "setting": "550 mg, 24 hours post-dose (4×ULN)", "value": 0.12, "unit": "ng/mL"},
      {"measurement": "TEAE: Any SOC, any PT", "setting": "[1]", "value": "2 (25.0) n (%)"},
      {"measurement": "TEAE: Dyspnea", "setting": "[1]", "value": "1 (12.5) n (%)"},
      {"measurement": "TEAE: Fatigue", "setting": "[1]", "value": "1 (12.5) n (%)"},
      {"measurement": "TEAE: Infusion site discomfort", "setting": "[1]", "value": "1 (12.5) n (%)"},
      {"measurement": "TEAE: Urinary tract infection", "setting": "[1]", "value": "1 (12.5) n (%)"},
      {"measurement": "TEAE: Any SOC, any PT", "setting": "[2]", "value": "5 (62.5) n (%)"},
      {"measurement": "TEAE: Bursitis", "setting": "[2]", "value": "1 (12.5) n (%)"},
      {"measurement": "TEAE: Diarrhoea", "setting": "[2]", "value": "1 (12.5) n (%)"},
      {"measurement": "TEAE: Hypomagnesemia", "setting": "[2]", "value": "1 (12.5) n (%)"},
      {"measurement": "TEAE: Oral contusion", "setting": "[2]", "value": "1 (12.5) n (%)"},
      {"measurement": "TEAE: Proteinuria", "setting": "[2]", "value": "1 (12.5) n (%)"},
      {"measurement": "TEAE: Anemia", "setting": "[3]", "value": "1 (25.0) n (%)"},
      {"measurement": "TEAE: Any SOC, any PT", "setting": "[3]", "value": "3 (75.0) n (%)"},
      {"measurement": "TEAE: Neck pain", "setting": "[3]", "value": "1 (25.0) n (%)"},
      {"measurement": "TEAE: Orthostatic hypotension", "setting": "[3]", "value": "1 (25.0) n (%)"},
      {"measurement": "TEAE: Ventricular extrasystoles", "setting": "[3]", "value": "1 (25.0) n (%)"},
      {"measurement": "TEAE: Any SOC, any PT", "setting": "[4]", "value": "1 (50.0) n (%)"},
      {"measurement": "TEAE: Cardiac discomfort", "setting": "[4]", "value": "1 (50.0) n (%)"},
      {"measurement": "TEAE: Dyspnea", "setting": "[4]", "value": "1 (50.0) n (%)"},
      {"measurement": "TEAE: Troponin increase", "setting": "[4]", "value": "1 (50.0) n (%)"},
      {"measurement": "TEAE: Anemia", "setting": "[5]", "value": "1 (8.3) n (%)"},
      {"measurement": "TEAE: Any SOC, any PT", "setting": "[5]", "value": "10 (83.3) n (%)"},
      {"measurement": "TEAE: Bursitis", "setting": "[5]", "value": "1 (8.3) n (%)"},
      {"measurement": "TEAE: Cardiac discomfort", "setting": "[5]", "value": "1 (8.3) n (%)"},
      {"measurement": "TEAE: Diarrhoea", "setting": "[5]", "value": "1 (8.3) n (%)"},
      {"measurement": "TEAE: Diverticulitis", "setting": "[5]", "value": "1 (8.3)− n (%)"},
      {"measurement": "TEAE: Dyspnea", "setting": "[5]", "value": "1 (8.3) n (%)"},
      {"measurement": "TEAE: Fatigue", "setting": "[5]", "value": "1 (8.3) n (%)"},
      {"measurement": "TEAE: Hypomagnesemia", "setting": "[5]", "value": "1 (8.3) n (%)"},
      {"measurement": "TEAE: Infusion site discomfort", "setting": "[5]", "value": "1 (8.3) n (%)"},
      {"measurement": "TEAE: Neck pain", "setting": "[5]", "value": "1 (8.3) n (%)"},
      {"measurement": "TEAE: Oral contusion", "setting": "[5]", "value": "1 (8.3) n (%)"},
      {"measurement": "TEAE: Orthostatic hypotension", "setting": "[5]", "value": "1 (8.3) n (%)"},
      {"measurement": "TEAE: Proteinuria", "setting": "[5]", "value": "1 (8.3) n (%)"},
      {"measurement": "TEAE: Troponin increase", "setting": "[5]", "value": "1 (8.3) n (%)"},
      {"measurement": "TEAE: Urinary tract infection", "setting": "[5]", "value": "1 (8.3) n (%)"},
      {"measurement": "TEAE: Ventricular extrasystoles", "setting": "[5]", "value": "1 (8.3) n (%)"}
    ]}
  ]
}
